Experimental data from publication PMC2693246 (ACS chemical biology, 2009).
≈ marks a conversion by molar mass, not a printed value. Entries after “also recorded” stand apart in the source; their conditions may differ.

Columns and labels:
F. tularensis LVS = assay: microbe, parasite or virus in culture; format: cell-based, Francisella tularensis; details: for MIC90: Francisella tularensis
F. tularensis Schu4 = system: F. tularensis Schu4; parameters: species or system mice; details: mouse, in vivo; for %Survival: ip, 200 mg/kg
ftuFabI [1] = target: T1, ftuFabI (Francisella tularensis subsp. tularensis, UniProt Q5NGQ3); assay: biochemical; format: biochemical
in vitro = details: African green monkey
ftuFabI [2] = target: T1, ftuFabI; format: biochemical
ftuFabI [3] = target: T1, ftuFabI; format: biochemical; remark: listed apart in the source
ecFabI = details: cited from earlier work

T1 sequence (Q5NGQ3 1-260): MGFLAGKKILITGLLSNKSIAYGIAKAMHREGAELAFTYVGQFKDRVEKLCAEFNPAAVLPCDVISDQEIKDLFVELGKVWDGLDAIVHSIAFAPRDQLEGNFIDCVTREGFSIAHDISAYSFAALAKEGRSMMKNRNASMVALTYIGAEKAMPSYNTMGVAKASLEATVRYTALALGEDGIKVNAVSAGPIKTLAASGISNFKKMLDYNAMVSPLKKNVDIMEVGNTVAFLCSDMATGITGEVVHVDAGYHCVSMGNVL

SMILES | MIC90 (F. tularensis LVS) [ng/mL] | Median Survival (F. tularensis Schu4) [days] | efficacy in the 10-day animal model of infection (F. tularensis Schu4) | %Survival (F. tularensis Schu4) [%] | Ki (ftuFabI [1]) [nM] | k2 (ftuFabI [1]) [min⁻¹] | k−2 (ftuFabI [1]) [min⁻¹] | residence time (ftuFabI [1]) [min] | CC50 (in vitro) [µg/mL] | Type of Inhibition (ftuFabI [2]) | further results
Oc1cc(Cl)ccc1Oc1ccc(Cl)cc1Cl [Compound 1, triclosan, reference compound] | 0.015 (≈ 5.18e-05 µM) | 7.8 | demonstrated efficacy | 22 | 407 ± 48 | 0.56 ± 0.04 | 0.025 ± 0.003 | 40 ± 3 | 14 ± 1 (≈ 48.4 µM) | uncompetitive inhibitor; also recorded: Slow-onset | fold tighter binding to E:NAD+ than to E:NADH (ftuFabI [2]): approximately 90,000 fold
Oc1cc(F)ccc1Oc1ccccc1 [Compound 3, 5-fluoro-2-phenoxyphenol] | 320 ± 20 (≈ 1.57 µM) |  |  |  |  |  |  |  |  | not a slow-onset inhibitor; also recorded: Rapid equilibrium | fold decrease in binding affinity compared to 4 and 7 (ftuFabI [3]): 150 fold
Oc1cc(Cl)ccc1Oc1ccccc1 [Compound 4, 5-chloro-2-phenoxyphenol] | 1 ± 1 (≈ 0.00453 µM) | 6.8 | demonstrated efficacy | 11 | 665 ± 70 | 0.11 ± 0.01 | 0.033 ± 0.002 | 30 ± 2 | 60 ± 14 (≈ 272 µM) | Slow-onset | fold higher affinity for ecFabI than triclosan (ecFabI): 7 fold; fold decrease in affinity for ftuFabI compared to triclosan (ftuFabI [2]): 37 fold
Cc1ccc(Oc2ccccc2)c(O)c1 [Compound 7, 5-methyl-2-phenoxyphenol] | 160 ± 70 (≈ 0.799 µM) |  |  |  |  |  |  |  |  | slow-onset inhibitors | 
CCCc1ccc(Oc2ccccc2)c(O)c1 [Compound 9, 5-propyl-2-phenoxyphenol] | 0.18 ± 0.14 (≈ 0.000788 µM) | 7.8 | demonstrated efficacy | 39 | 375 ± 6 | 1.66 ± 0.01 | 0.017 ± 0.002 | 59 ± 2 | 62 ± 3 (≈ 272 µM) | slow-onset inhibitors | fold more potent (MIC90) than doxycycline (F. tularensis LVS): > 4,000 fold; fold more potent (MIC90) than gentamicin (F. tularensis LVS): more than 22,000 fold
C[C@H]1c2cccc(O)c2C(=O)C2=C(O)[C@]3(O)C(=O)C(C(N)=O)=C(O)[C@@H](N(C)C)[C@@H]3[C@@H](O)[C@@H]21 [Doxycycline, reference compound] | 750 ± 350 (≈ 1.69 µM) |  |  |  |  |  |  |  |  |  | 
CNC(C)C1CCC(N)C(OC2C(N)CC(N)C(OC3OCC(C)(O)C(NC)C3O)C2O)O1 (stereo not shown) [Gentamicin, reference compound] | 4000 (≈ 8.38 µM) |  |  |  |  |  |  |  |  |  | 
[H]/N=C(/N)N[C@H]1[C@H](O)[C@@H](O)[C@H](O[C@@H]2O[C@@H](C)[C@](O)(C=O)[C@H]2O[C@@H]2O[C@@H](CO)[C@H](O)[C@@H](O)[C@@H]2NC)[C@@H](N/C(N)=N\[H])[C@@H]1O [Streptomycin, reference compound] | 2000 (≈ 3.44 µM) |  |  |  |  |  |  |  |  |  | 
